Where “and” joins values, the source holds several entries; their conditions need not be identical. Equal entries are not always repeated. Where two headings read alike, the source gives them in different places.
Key:
[1] = test system: HIV-1 envelope mediated fusion of CHO gp160 cells with CD4 HeLa cells; conditions: C34 data taken from Chan et al., PNAS 95:15613 (1998); read-out: Cell-Cell Fusion Assay (IC50 in nM); cited from earlier work
[2] = Circular dichroism spectroscopy; format: physicochemical; conditions: PBS, pH 7.0, 25° C., C34-GCN4 with about 0.7 M guanidine hydrochloride
Description: The guanidine hydrochloride used to solubilize C34-GCN4 absorbs light at wavelengths below 210 nm. Experimental conditions were PBS, pH 7.0, 25° C.
CD spectra were measured on an Aviv 60DS spectrapolarimeter at 25° C. in phosphate buffered saline (PBS; 10 mM sodium phosphate, 150 mM NaCl, pH 7.0). […] Guanidine concentrations were measured by refractometry.

[3] = test system: recombinant luciferase-expressing HIV-1 infecting HOS-CD4/Fusin cells; conditions: C34 data taken from Chan et al., PNAS 95:15613 (1998); read-out: Viral Infectivity Assay (IC50 in nM); cited from earlier work
[4] = test system: HIV-1 envelope mediated fusion of CHO gp160 cells with CD4 HeLa cells
Description: The peptides were tested for inhibiting the fusion of HIV-1 Env expressing cells (CHO gp 160) with CD4expressing cells (CD4 HeLa) (D. C. Chan, et al., Proc. Natl. Acad. Sci., 95:15613-15617 (1998)).
(§1) Assessment of viral infectivity and syncytia formation were carried out as described by Eckert et al., Cell, 99:103-115 (1999). In both inhibition assays, peptide stocks were dissolved in dimethylsulfoxide and their concentrations determined by absorbance in guanidine at 280 nm. The final concentration of dimethylsulfoxide in tissue culture media was 1% in all experiments. Inhibition of cell-cell fusion (syncytia formation) (G. J. Nabel, Nature 410, 1002-1007 (2001); D. C. Chan, C. T. Chutkowski, P. S. Kim, Proc. Natl. Acad. Sci. 95, 15613-15617 (1998)) was assayed by co-culturing 3×10^4 Chinese hamster ovary (CHO) cells expressing HXB2 envelope and tat and rev with 5×10^4 HeLa cells expressing CD4 and LTR-driven β-galactosidase in the presence of varying concentrations of peptides. The CHO and HeLa cells were incubated in the presence of peptides for 20 hours, and stained with 5-bromo-4-chloro-3-indolyl-β-D-galactoside (X-gal) to detect the syncytia, which were visualized by microscopy and counted manually. In the viral infectivity assay, the ability of the peptides to inhibit HIV-1 infection was assayed using a recombinant luciferase-encoding HIV-1 (G. J. Nabel, Nature 410, 1002-1007 (2001); D. C. Chan, C. T. Chutkowski, P. S. Kim, Proc. Natl. Acad. Sci. 95, 15613-15617 (1998)). 293T cells were co-transfected with an envelope-deficient HIV-1 genome with a luciferase gene (NL43LucR-E-) [B. K. Chen, K. Saksela, R. Andino, D. Baltimore, J. Virol. 68, 654-660 (1994)] and the HXB2 gp160 expression vector (pCMVHXB2 gpl60). Low-speed centrifugation was used to clear the viral supernatants of cellular debris. The supernatant containing the viruses was used to infect HOS cells expressing CD4 and CXCR4 (HOS-CD4/Fusin cells, N. Landau, National Institutes of Health AIDS Reagent Program) in the presence of varying concentrations of peptides. The HOS cells were harvested 48 hours post-infection, and luciferase activity was monitored using a Wallac AutoLumat LB953 luminometer. In both assays, the IC50, the concentration needed to inhibit 50% of cell-cell fusion events or luciferase activity, was calculated from fitting the data to the equation, y=k/(1+[peptide]/IC50), where y=number of syncytia or luciferase activity and k is a scaling constant.
To test how well the HIV-1-neutralizing epitope was recapitulated, two assays were used to measure the potency of the designed peptides in inhibiting HIV-1 envelope-mediated membrane fusion. The biological activity of the designed peptides were first measured by their ability to inhibit fusion of HeLa cells expressing CD4 and chemokine receptors and CHO expressing HIV envelope protein (D. C. Chan, C. T. Chutkowski, P. S. Kim, Proc. Natl. Acad. Sci. 95: 15613-15617 (1998)).

[5] = 10 μM; Gonzalez et al. 1996; cited from earlier work
[6] = test system: recombinant luciferase-expressing HIV-1 infecting HOS-CD4/Fusin cells
Description: The peptides were tested for inhibition of CD4 positive target cells (HOST4) by recombinant, luciferase-expressing HIV-1 (D. C. Chan, C. T. Chutkowski, P. S. Kim, Proc. Natl. Acad. Sci. 95, 15613-15617 (1998)).
as §1
In a second assay, the ability of the peptides to inhibit HIV infection of HOS cells expressing CD4 and CXCR4 was measured, using a luciferase-based reporter assay (D. C. Chan, C. T. Chutkowski, P. S. Kim, Proc. Natl. Acad. Sci. 95: 15613-15617 (1998); Chen, B. K., et al.,J. Virol., 68(2):[…] (1994)).

[7] = biological target: HIV-1 gp41 envelope glycoprotein (HXB2 envelope) (HIV-1 (HXB2)) (UniProt P04578); assay: cell-based or functional assay

For “C34: linear C-peptide of HIV-1 gp41 (SEQ ID NO: 2), unstructured in solution [Peptide C34]”, the IC50 [1] is given as 0.6 nM, the “[Θ]222 value” [2] is given as −3,800 deg cm^2 dmol^−1 and the IC50 [3] is given as 2.1 nM.
For “GCN4 homodimer: covalent homodimer of CGG-GCN4”, the “inhibition of cell-cell fusion, in words” value [4] was “no activity”, the “Cell-Cell Fusion Assay (IC50 in nM)” value ([4]; CHO cells expressing HXB2 envelope co-cultured with CD4 HeLa cells, 20 hours, 1% DMSO) was “none” and the IC50 ([4]; read-out: no inhibitory activity in cell-cell fusion up to stated concentration, highest concentration without measurable inhibition) was greater than 50000 nM. The “transition midpoint under temperature denaturation” value [5] was “over 100 °C”, the “inhibition of viral infectivity, in words” value [6] was “no activity” and the “Viral Infectivity Assay (IC50 in nM)” value ([6]; HOS cells expressing CD4 and CXCR4, luciferase 48 hours post-infection, 1% DMSO) was “none”. The IC50 ([6]; read-out: no inhibitory activity in viral infectivity up to stated concentration, highest concentration without measurable inhibition) was greater than 50000 nM.
In the case of C34-GCN4 peptide (designed binder), the Cell-Cell Fusion Assay (IC50 in nM) [7] is reported as 5 nM, the Viral Infectivity Assay (IC50 in nM) [7] is reported as 16 nM and the inhibition of cell-cell fusion, IC50 [7] is reported as 4.6 nM. For the same substance, the inhibition of viral infectivity, IC50 [7] was 19 nM.
GCN4 homodimer gave an inhibition of cell-cell fusion [7] greater than 50 µM and an inhibition of viral infectivity [7] greater than 50 µM.
For “Ac-WRMWDLEIKVYTLLIKNLILESEVQQLKNLVELR-NH2 (C-terminus assumed) [Peptide C34-GCN4]”, the “inhibition of cell-cell fusion, in words” value [4] was “strong inhibitory potency”, the IC50 ([4]; read-out: Cell-Cell Fusion Assay (IC50 in nM), CHO cells expressing HXB2 envelope co-cultured with CD4 HeLa cells, 20 hours, 1% DMSO) was 4.6 nM and 5 nM and the “[Θ]222 value” ([2]; listed as C34-GCN4 peptide) was −12,400 deg cm^2 dmol^−1 and −12,000 deg cm^2 dmol^−1. For the same substance, the solubility was less than 1 µM and the IC50 ([6]; read-out: Viral Infectivity Assay (IC50 in nM), HOS cells expressing CD4 and CXCR4, luciferase 48 hours post-infection, 1% DMSO) was 16 nM.
